Laboratory results published in patent US20210077491A1, “PHARMACEUTICAL COMPOSITION” (Kowa Company, Ltd., priority 2017, published 2021).

Assays:
Type in all cases: in vivo, mouse
[1] = test system: pulmonary fibrosis model mice (intratracheal bleomycin); assay: Lung weight in bleomycin-induced pulmonary fibrosis model mice, preventive dosing (Example 1); settings: male ICR mice, bleomycin 1.5 mg/kg intratracheal, lungs at day 21, FIG. 1; for lung weight as compared to the normal group: oral from the day after exposure, compound A 50 mg/kg/day, losartan 50 mg/kg/day, pirfenidone 400 mg/kg/day
Method: (§1) 6-week-old male ICR mice (Japan SLC, Inc.) were exposed to bleomycin (Nippon Kayaku Co., Ltd.) (1.5 mg/kg) dissolved in physiological saline in the trachea to prepare pulmonary fibrosis model mice.
(§2) Investigation was conducted in mice not exposed to bleomycin (exposed to physiological saline in the trachea) in the normal group (6 mice), and pulmonary fibrosis model mice exposed to bleomycin in the trachea divided into 4 groups (control, compound A 50 mg/kg/day, losartan 50 mg/kg/day, and pirfenidone 400 mg/kg/day; 10 mice in each group). From the day after exposure to bleomycin, a 0.5% aqueous solution of methylcellulose was orally administered (administered twice a day) to the normal group and the control group, the sample solution of compound A prepared above was orally administered (administered once a day) to the compound A administration group, the sample solution of losartan prepared above was orally administered (administered once a day) to the losartan administration group, and the sample solution of pirfenidone prepared above was orally administered (administered twice a day) to the pirfenidone administration group, respectively. Twenty-one days after the bleomycin exposure, the mice were anesthetized and whole lung tissues were extracted.
After washing the lung tissue extracted from the mouse with physiological saline, water was removed with a filter paper, and the wet weight was measured.

[2] = test system: pulmonary fibrosis model mice (intratracheal bleomycin); assay: Amount of hydroxyproline in the lungs of bleomycin-induced pulmonary fibrosis model mice, preventive dosing (Example 1); settings: preventive: oral from the day after bleomycin exposure, FIG. 2; for hydroxyproline in the lung as compared to the control group: compound A 50 mg/kg/day, losartan 50 mg/kg/day, lungs at day 21, Dunnett test
Method: as §1, §2
The lung tissue extracted from the mouse was homogenized in a PBS solution, then mixed with an equal volume of 12N hydrochloric acid in a tube, and incubated at 110° C. for 20 to 24 hours. After the incubation, the solution was volatilized by opening the tube and continuing the incubation. […] 10 μL of the sample was added with 100 μL of chloramine T solution (1.4% chloramine T, 10% n-propanol, 80% citrate acetate buffer) and incubated at room temperature for 20 minutes, then added with 100 μL of Ehrlich's reagent (1 M p-dimethylamino benzaldehyde, 20% perchloric acid, 50% n-propanol) and incubated at 65° C. for 15 minutes, and the absorbance at 550 nm was measured to quantify the amount of hydroxyproline.

[3] = test system: pulmonary fibrosis model mice (intratracheal bleomycin); assay: Amount of hydroxyproline in the lungs of bleomycin-induced pulmonary fibrosis model mice, therapeutic dosing (Example 2); settings: therapeutic: oral from the 7th day after bleomycin exposure; compound A 50 mg/kg/day, losartan 50 mg/kg/day, pirfenidone 400 mg/kg/day; lungs at day 21; Dunnett test; FIG. 3
Method: Model mice were prepared in the same manner as in Example 1.
as §2, with “From the 7th day after” for “From the day after”
The amount of hydroxyproline in the mice was measured by the same method as in Example 1.

| SMILES | lung weight as compared with the control group ([1]; oral 50 mg/kg/day once a day from the day after exposure, Dunnett test p<0.05) | lung weight as compared to the normal group [1] | decrease in hydroxyproline in the lung relative to the losartan administration group ([2]; compound A 50 mg/kg/day vs losartan 50 mg/kg/day, day 21) | hydroxyproline in the lung as compared to the control group [2] | hydroxyproline in the lung as compared to the control group [3] |
| --- | --- | --- | --- | --- | --- |
| CCCc1nc(C(C)C)n(-c2ncc(OCC)cn2)c(=O)c1Cc1ccc(-c2ccccc2-c2noc(=O)[nH]2)nc1 [compound A, 3-[2-(5-{[1-(5-ethoxypyrimidin-2-yl)-2-isopropyl-6-oxo-4-propyl-1,6-dihydropyrimidin-5-yl]methyl}pyridin-2-yl)phenyl]-1,2,4-oxadiazol-5(4H)-one] | significant decrease in lung weight | no significant increase in lung weight | larger decrease than the losartan administration group | significant decrease in hydroxyproline in the lung | significant decrease in hydroxyproline in the lung |
| CCCCc1nc(Cl)c(CO)n1Cc1ccc(-c2ccccc2-c2nn[nH]n2)cc1 [losartan] |  | significant increase in lung weight |  | significant decrease in hydroxyproline in the lung | no significant difference |
| Cc1ccc(=O)n(-c2ccccc2)c1 [pirfenidone] |  | significant increase in lung weight |  |  | no significant difference |
